Common to all, as to type: cell-based
In assay [1] the test system is PD1-ss+10aa/Gaussia Luciferase. Briefly: Dox induced PD1-ss-Gluc assay. The settings on record: Flp-In 293 T-REx cells, doxycycline, 24 hours; read-out: PD1ss Gluc IC50. The essentials:
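Stable Flp-In 293 T-REx line expressing doxycycline-inducible Gaussia luciferase fused to the PD1 signal sequence plus 10 amino acids. Cells plated the day before, then exposed to compound dilutions in DMSO/media containing doxycycline at 37 °C, 5% CO2.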

Assay [2] relates to TNFα-FL/Gaussia Luciferase. Briefly: Dox induced TNFα-FL-Gluc assay. The note with it: Flp-In 293 T-REx cells, doxycycline, 24 hours; read-out: TNFa FL Gluc IC50. The gist of the method: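 Stable Flp-In 293 T-REx line expressing full-length TNFα (aa 1-233) fused at its C-terminus to Gaussia luciferase under doxycycline-inducible control. Cells plated the day before, then given compound dilutions in DMSO/media containing doxycycline and incubated at 37 °C, 5% CO2.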

Assay [3] has as its system NCI-H929 multiple myeloma cell line. Briefly: H929 assay (cell viability, Celltiter-Glo). The note with it: Homo sapiens, NCI-H929; 48 hours, cell viability; read-out: H929 EC50. The essentials: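 Cells plated in RPMI 1640 with 10% FBS and 2 mM glutamine, treated with compound dilutions in DMSO/media. Incubation 48 h at 37° C, 5% CO2. Viability from luciferase luminescence signal.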

The subject of assay [4] is VCAMss+10aa/Gaussia Luciferase. Put plainly: VCAM-ss-Gluc assay (constitutively active or Dox induced). The note with it: Flp-In 293 T-REx cells, 24 hours. The essentials: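 Stable cell lines secreting a VCAM signal sequence+10aa/Gaussia luciferase fusion, expressed either constitutively or under T-REx doxycycline control. Cells plated the day before; compound dilutions in DMSO/media (with doxycycline for the induced line) added and incubated at 37° C, 5% CO2.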

In assay [5] the test system is HER3ss-Gluc. Briefly: HER3ss assay. The note with it: HEK-293T T-rex cells, transient transfection, doxycycline, 24 h; read-out: HER3 ss IC50. The essentials:
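HEK-293T T-REx cells were transiently transfected with HER3 signal sequence (plus four mature-domain residues) fused upstream of mature Gaussia luciferase. Cells were induced with doxycycline (1 μg/ml) and exposed to increasing compound concentrations for 24 h, then secreted luciferase in the conditioned medium was read by luminescence.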

Assay [6] relates to U266B1 multiple myeloma cell line. Briefly: U266 assay (cell viability, Celltiter-Glo). The note with it: Homo sapiens, U-266; 48 hours, cell viability. On the procedure: Cells were plated in 384-well tissue culture plates and treated with compound dilutions in DMSO/media. Plates were incubated at 37° C., 5% CO2 for 48 hours. After 48 hours, Celltiter-Glo@ (Promega) was added to each well and luciferase signal was quantified using Tecan Infinite M1000 Pro for cell viability determination.
In general terms: Cellular ATP, detected with luciferase, serves as a proxy for viable cell number.

In assay [7] the test system is IL7Rss-Gluc. Briefly: IL7Rss assay. On the procedure:
The mature domain of secreted luciferase from Gaussia princeps (GLuc) was cloned into pcDNA5/FRT/TO. The signal sequence plus four amino acids of the mature domain from IL7R ([…]) (SEQ ID NO:6) were cloned upstream of GLuc mature domain and used in transient transfection experiment. HEK-293T T-rex cells were cultured in Dulbecco's modified Eagle's medium with 10% FBS at 5% CO2. Cells were plated 1×10e6 cells per well in a 6-well plate and incubated for 6 h. Cells were transiently transfected with IL7Rss-Gluc using Lipofectamine 2000 (Invitrogen). After overnight incubation, transfected cells were replated in a clear-bottomed, black 96-well plate at a density of 20,000 cells per well. Six hours after plating, the cells were treated with doxycycline (1 μg/ml) and increasing concentrations of the indicated compounds for 24 h. Secreted luciferase in the conditioned media was quantified by luminescence using the BioLux Gaussia Luciferase Assay Kit (New England Biolabs, Ipswich, Mass., USA) and a SpectraMax M5 plate reader (Molecular Devices).

pEC50, pIC50: −log10 of the molar value. Like-named read-outs stand apart in the source and are kept apart here. Peptide text beside a SMILES is read from it.

For the compound `CC(C)C[C@@H]1NC(=O)[C@H](Cc2cn(Cc3ccccc3)c3ccccc23)N(C)C(=O)[C@H](CC(C)C)NC(=O)[C@H](CC(C)C)N(C)C(=O)[C@H](CC(C)C)NC(=O)[C@@H](CCC#N)OC(=O)[C@H](C)N(C)C1=O` [C-16] (HELM PEPTIDE1{L.[meA].[N#CCC[C@@H](O[*:1])C(=O)[*:2]].L.[meL].L.[CN([C@@H](Cc1cn(Cc2ccccc2)c2ccccc12)C(=O)[*:2])[*:1]]}$PEPTIDE1,PEPTIDE1,1:R1-7:R2$$$V2.0), the pIC50 – broadly, the negative decadic logarithm of the IC50, by convention in mol/L – is 7.57 in assay [1]; 7.04 in assay [2]; 7.09 in assay [4]; 7.42 in assay [5]; 8.00 in assay [7] (HEK-293T T-rex cells, transient transfection, doxycycline, 24 h; read-out: IL7Rss IC50). Moreover, the pEC50 (commonly −log10 of the EC50, conventionally taken in molar units) in assay [3] was 6.03; in assay [6] it was 4.87.
Regarding `C#CC[C@H]1OC(=O)[C@H](C)N(C)C(C)[C@H](C[C@H](C)CCCC)NC(=O)[C@H](Cc2ccccc2)N(C)C(=O)[C@H](CC(C)C)NC(=O)[C@H](CC(C)C)N(C)C(=O)[C@H](C[C@H](C)CCCC)NC1=O` (some centres unmarked) [C-01], the pIC50 is 7.25 in assay [1]; 7.10 in assay [2]; 7.82 in assay [4]; 7.40 in assay [5]; 7.64 in assay [7] (read-out: IL7Rss IC50; HEK-293T T-rex cells, transient transfection, doxycycline, 24 h). Besides, the pEC50 is 6.34 in assay [3] and 4.63 in assay [6].

Source of the values: patent US11339193B2, “CDP protein secretion inhibitors” (KEZAR LIFE SCIENCES, priority 2018, dated 2022).
